Assay results published in patent publication US20190142835A1, “INHIBITION OF AUTOPHAGY USING PHOSPHOLIPASE A2 INHIBITORS” (OREGON HEALTH & SCIENCE UNIVERSITY, priority 2017, published 2019).

Legend:
ACHN cells [1] = assay: High content imaging screen of 116 small molecule inhibitors for p62 and pS6; type: cell-based, human; details: HCI screen, 72 hr; for p62 expression and phosphorylation of S6: 7-point dilution series
From the text: We used a metastatic human RCC cell line, ACHN. Small molecule inhibitors have been extensively used in RCC over the last decade. […] Importantly, p62 is an autophagy substrate that is degraded along with its cargo, and so is expected to decrease with induction of autophagy. Therefore, we monitored p62 steady-state levels as an initial screen of autophagy flux. Next, we combined the measurement of the p62 with a measurement of mTORC1 activity an independent readout to evaluate autophagy. mTORC1 plays the central role in the anabolic process by increasing protein content through ribosomal biogenesis and elongation of protein translation. Specifically, mTORC1 induces mRNA translation by inducing the activation of p70S6 kinase and the subsequent phosphorylation of the S6 ribosomal protein. To ensure increased cellular biomass, mTORC1 downregulates autophagy. We chose the phosphorylation status of the downstream target of mTORC1 signaling, ribosomal S6 (hereafter S6) as a readout for mTORC1 activity.
To provide a straightforward method for detecting the induction of autophagy, we monitored ACHN cells for small molecule inhibitors which decreased the antibody labelled levels of p62 protein and pS6 phosphorylation (see methods below for detailed experiment procedure). To that end, automated high content imaging (HCl) microscopy was used to detect induction of autophagy as documented by the […] by p62 protein expression and mTORC1 inhibition by the decrease in S6 phosphorylation. The HCl assay was optimized for 384-well plate screening. Drug screening plates were designed and created as previously described.
A 7-point dilution series of 116 small molecule inhibitors covering a 1000× concentration range were plated into three, 384-well plates using the EP Motion automated dispensing system. Control wells with equal volumes of DMSO were included as negative controls. ACHN cells were grown, trypsinized counted, and plated directly into warm drug plates using Multidrop combi dispenser. Plates were incubated for 72 hr and subsequently imaged on the Olympus ScanR Platform at 10× magnification performing 4 images per well in 384 well plates. Single-cell nuclear and cytoplasmic fluorescent intensities were calculated using the Olympus ScanR Analysis Software: the DAPI-positive region of each cell was used as a boundary to quantitate nuclei counts for analysis of cell growth and integrated nuclear DNA staining intensity was used for cell cycle analysis. A 10-pixel extension of the nuclear region (and not including the nuclear region) was used to quantitate cytoplasmic signal of immunofluorescent staining of p62 protein and phosphorylation of S6. Mean signal intensity of each marker in all cells per well was used as the metric for cytoplasmic marker expression (average intensity of pS6 and p62). Unsupervised hierarchical clustering was used to identify compounds that produced similar pS6 and p62 dose response phenotypes after treatment.

ACHN cells [2] = assay: Lipid droplet staining (Bodipy 493/503), ACHN; type: cell-based, human
Protocol: Cells were grown on coverslips then treated with drug for 24 hours. Cells were fixed in 4% paraformaldehyde for 15 min, rinsed with PBS. Cells were washed with a 1% saponin solution for 15 min at room temperature then washed several times in PBS to remove detergent. Cells were then incubated in Bodipy (ThermoFisher #D3922) at a final concentration of 1 uM for 10 min. Bodipy was removed and slides were rinsed with PBS then air dried and mounted on slides using Dako mounting media with Dapi.

ACHN cells [3] = assay: Apoptosis (Caspase 3/7-Glo), ACHN; type: cell-based, human
Protocol: (§1) Apoptosis was determined using Caspase 3/7-Glo assay kit (Promega) following the manufacturer's instructions. Briefly, 2000 cells per well were plated in 96 well plates and cultured for 72 h. […] Caspase 3/7 activity was measured using a luminometer. Luminescence values were normalized by cell numbers.

SN12C cells [4] = assay: Cell viability (CellTiter-Glo), SN12C; type: cell-based, human; details: 3 days
Protocol: Cell viability assays were performed by plating 2000 cells/well in 96-well plates in triplicate and treating the following day with the indicated agent. The experiment was continued for 3 days and then cell viability was determined using CellTiter-Glo assay kit (Promega). The assay was measured using a luminometer. […] Experimental results are the average of at least three independent experiments.

ACHN cells [5] = assay: Cell viability (CellTiter-Glo), ACHN; type: cell-based, human; details: for proliferation (cell viability): ACHN, 3 days
Protocol: Cell viability assays were performed by plating 2000 cells/well in 96-well plates in triplicate and treating the following day with the indicated agent. The experiment was continued for 3 days and then cell viability was determined using CellTiter-Glo assay kit (Promega).
The assay was measured using a luminometer. […] Experimental results are the average of at least three independent experiments.

[6] = tested on: PI3K, mTORC1 and mTORC2 signaling; assay: Western blotting of PI3K-AKT-mTOR signaling; type: cell-based, human
Protocol: Cells were plated in 6 well dishes and treated the following day with the indicated agents. Treatments were for 24 hours, after which cells were washed with ice cold PBS and lysed with RIPA buffer (Sigma). Phosphatase inhibitor cocktail set II and protease inhibitor cocktail set III (EMD Millipore) were added at the time of lysis. Lysates were centrifuged at 15,000 g×10 min at 4 degrees C. Protein concentrations were calculated based on a BCA assay (Thermo Scientific) generated standard curve. Proteins were resolved using the NuPAGE Novex Mini Gel system on 4% to 12% Bis-Tris Gels (Invitrogen). For western blotting, equal amounts of cell lysates (15-20 μg of protein) were resolved with SDSPAGE, and transferred to membranes. The membrane was probed with primary antibodies, washed, and then incubated with corresponding fluorescent secondary antibodies and washed. The fluorescent signal was captured using LI-COR (Lincoln, Nebr.) Odyssey Imaging System, and fluorescent intensity was quantified using the Odyssey software where indicated. The following antibodies were used for Western blots: p-S6 (S240/244), S6, LC3B, p-Akt(S473), p-Akt(T308), Akt, cleaved caspase3 (Cell Signaling Technologies). p-Stat3 (Y705), Stat3 and β-actin (AC15) (Abcam). Ki67 (Dako) and cleaved caspase3 (Cell Signaling Technologies) were used for immunohistochemistry. […] BX795 and GDC0941 were purchased from Sigma.

SN12C cells [7] = assay: Apoptosis (Caspase 3/7-Glo), SN12C; type: cell-based, human; details: 72 h
Protocol: as §1

ACHN cells [8] = assay: Cellular respiration (XF96 Seahorse, ECAR and OCR); type: cell-based, human; details: 24 h
Protocol: Oxygen consumption and extracellular acidification rates were carried out in a XF96 Seahorse Analyzer (Seahorse Bioscience, Billerica, Mass., USA). Cells were plated in the wells of 96-well plates (8×10^3 cells/well; XF96 plates, Seahorse Bioscience, North Billerica, Mass.) and incubated at 37° C. overnight. The next day, cells were treated with indicated drugs for 24 hours and then the medium was changed to XF Assay Medium and loaded with glucose, oligomycin, and 2-DG, respectively, as manufacture's recommendation.

mTORC1 = assay: Autophagy induction and mTORC1 inhibition by JAK inhibitors not contained in the library; type: cell-based

## CC(C)n1nc(-c2cc3cc(O)ccc3[nH]2)c2c(N)ncnc21 [PP-242]
ACHN cells [1]
  p62 expression and phosphorylation of S6: reduced both p62 expression and phosphorylation of S6

## CCc1c(C(=O)C(N)=O)c2c(OCC(=O)O)cccc2n1Cc1ccccc1 [varespladib]
ACHN cells [2]
  LDs on addition to CYT387-MK2206 treated cells: decreased LDs
ACHN cells [3]
  apoptosis on addition to CYT387-MK2206 treated cells: increased apoptosis

## O=C(c1ccc(/C=C/c2n[nH]c3ccccc23)cc1)N1CCNCC1 [KW2449]
ACHN cells [1]
  induction of autophagy / autophagic flux: induce autophagy

## CN[C@@H]1C[C@H]2O[C@@](C)([C@@H]1OC)n1c3ccccc3c3c4c(c5c6ccccc6n2c5c31)C(=O)NC4 [Staurosporine]
ACHN cells [1]
  p62 expression and phosphorylation of S6: reduced both p62 expression and phosphorylation of S6

## O=C(NCCCNc1nc(Nc2cccc(NC(=O)N3CCCC3)c2)ncc1I)c1cccs1 [BX795]
SN12C cells [4]
  proliferation (cell viability): some anti-proliferative effects
ACHN cells [5]
  proliferation (cell viability): some anti-proliferative effects
[6]
  mTORC1 or mTORC2 signaling (AKT S473 and S6 phosphorylation): not able to inhibit mTORC1 or mTORC2 signaling
SN12C cells [7]
  apoptosis (cleaved-caspase 3/7): little or no effect on apoptosis
ACHN cells [3]; ACHN, 72 h
  apoptosis (cleaved-caspase 3/7): little or no effect on apoptosis

## CC(C)C[C@H](NC(=O)[C@H](Cc1ccccc1)NC(=O)c1cnccn1)B(O)O [Velcade]
ACHN cells [1]
  p62 expression and phosphorylation of S6: reduced both p62 expression and phosphorylation of S6

## CN1CC[C@H](c2c(O)cc(O)c3c(=O)cc(-c4ccccc4Cl)oc23)[C@H](O)C1 [Flavopiridol]
ACHN cells [1]
  p62 expression and phosphorylation of S6: reduced both p62 expression and phosphorylation of S6

## O=S(=O)(NCCNC/C=C/c1ccc(Br)cc1)c1cccc2cnccc12 [H89]
ACHN cells [1]
  p62 expression and phosphorylation of S6: reduced both p62 expression and phosphorylation of S6

## CCCCCCCC/C=C\CCCCCCCCOCCOP(=O)([O-])OCC[N+](C)(C)C [OOEPC, oleyloxyethylphosphocholine]
ACHN cells [5]
  proliferation on co-treatment with CYT387, MK2206, CYT387+MK2206: minimal additional effect on proliferation
ACHN cells [2]; 24 hrs
  LD abundance on addition to CYT387, MK2206 and CYT387-MK2206 co-treated cells: significantly reduced the LD abundance
ACHN cells [8]
  ECAR and OCR on addition to the CYT387-MK2206 combination: markedly decreased ECAR and OCR
  basal OCR on addition to the CYT387-MK2206 combination: marked decrease in the basal OCR
  spare respiratory capacity on addition to the CYT387-MK2206 combination: significantly reduced the spare respiratory capacity
ACHN cells [3]
  apoptosis (Caspase3/7 activity) on addition to CYT387, MK2206, CYT387+MK2206: significantly increased apoptosis

## Oc1nc(-c2ccc(C(F)(F)F)cc2)nc2c1CSCC2 [XAV939]
ACHN cells [1]
  induction of autophagy / autophagic flux: induce autophagy

## C[C@]12O[C@H](C[C@]1(O)CO)n1c3ccccc3c3c4c(c5c6ccccc6n2c5c31)CNC4=O [CEP-701]
mTORC1
  autophagy induction: potently induced autophagy
  mTORC1 inhibition: inhibited mTORC1

## Cn1c(=O)n(-c2ccc(C(C)(C)C#N)cc2)c2c3cc(-c4cnc5ccccc5c4)ccc3ncc21 [BEZ-235]
ACHN cells [1]
  p62 expression and phosphorylation of S6: reduced both p62 expression and phosphorylation of S6

## CS(=O)(=O)N1CCN(Cc2cc3nc(-c4cccc5[nH]ncc45)nc(N4CCOCC4)c3s2)CC1 [GDC-0941]
SN12C cells [4]
  proliferation (cell viability): some anti-proliferative effects
ACHN cells [5]
  proliferation (cell viability): some anti-proliferative effects
[6]; added to CYT387
  effect on mTORC1 activity in cells treated with CYT387: additive inhibitory effect on mTORC1 activity
